From patent US20220040115A1, “PHARMACEUTICAL COMPOSITIONS AND DELIVERY SYSTEMS FOR PREVENTION AND TREATMENT OF CANDIDIASIS” (INDIAN INSTITUTE OF TECHNOLOGY HYDERABAD, priority 2018, published 2022)

Assays:
Candida albicans [1] = assay: Inhibition zone test of oil compositions on Candida albicans (Example 1); format: cell-based; parameters: unit not given here
Procedure: Different two-oil and three-oil compositions with varying ratios were prepared in order to check the performance of the oils for inhibition of Candida albicans. Fluconazole and saline were used as positive and negative controls, respectively.

Candida albicans [2] = assay: Antifungal activity (zone of inhibition) of microcapsules and bacterial cellulose loaded microcapsules; format: cell-based
From the text: The anti-fungal activity of the microcapsules and cellulosic matrices were checked for inhibition of Candida albicans. The studies are depicted in FIG. 15, FIG. 16, FIG. 17 and FIG. 18.

Structure (SMILES) | Inhibition zone diameter (Candida albicans [1]; 200 μg, time period 24 hrs) | Inhibition zone diameter (Candida albicans [1]; 200 μg, time period 48 hrs) | Inhibition zone diameter (Candida albicans [1]; 200 μg, time period 72 hrs) | Zone of inhibition (Candida albicans [2]; 24 hrs) | Zone of inhibition (Candida albicans [2]; 48 hrs) | Zone of inhibition (Candida albicans [2]; 72 hrs) | Inhibition zone diameter (Candida albicans [1]; volume 50 μL, 24 hrs) | Inhibition zone diameter (Candida albicans [1]; volume 100 μL, 24 hrs) | Inhibition zone diameter (Candida albicans [1]; volume 150 μL, 24 hrs) | Inhibition zone diameter (Candida albicans [1]; volume 200 μL, 24 hrs)
OC(Cn1cncn1)(Cn1cncn1)c1ccc(F)cc1F [Fluconazole] | 5.3 | 4.5 | 3.4 | 3.5 ± 0.1 | 1.8 ± 0.1 | 1.5 ± 0.1 |  |  |  | 
Cc1ccc(C(C)C)c(O)c1 [Thymol, 2-isopropyl-5-methylphenol] |  |  |  |  |  |  | 2.5 | 3.1 | 3.9 | 4.2
Cc1ccc(C(C)C)cc1O [Carvacrol, 5-Isopropyl-2-methylphenol] |  |  |  |  |  |  | 3.2 | 3.8 | 4.5 | 5.1
C=CCc1ccc(O)c(OC)c1 [Eugenol, 2-Methoxy-4-(prop-2-en-1-yl) phenol] |  |  |  |  |  |  | 2.0 | 3.5 | 4.1 | 4.3
